The values below come from patent US10381110B2, “Molecules” (University of Dundee, priority 2010, dated 2019).

For assay [1], the target named is T1, dopamine D4 (Homo sapiens, UniProt P21917).
T1 sequence (P21917 1-419): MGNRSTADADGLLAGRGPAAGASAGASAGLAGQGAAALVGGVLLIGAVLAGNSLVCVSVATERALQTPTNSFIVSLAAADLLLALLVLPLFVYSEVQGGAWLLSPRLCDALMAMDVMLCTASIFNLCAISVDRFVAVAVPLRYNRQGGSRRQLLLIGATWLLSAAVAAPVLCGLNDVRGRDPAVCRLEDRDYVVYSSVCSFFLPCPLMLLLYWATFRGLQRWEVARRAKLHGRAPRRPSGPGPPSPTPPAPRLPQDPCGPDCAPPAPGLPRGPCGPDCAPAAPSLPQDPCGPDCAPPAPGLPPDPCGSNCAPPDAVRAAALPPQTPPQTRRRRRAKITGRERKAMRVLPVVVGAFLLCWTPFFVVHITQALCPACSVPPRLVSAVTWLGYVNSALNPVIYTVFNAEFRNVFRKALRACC
Conditions: previously reported analogue; read-out: dopamine D4 Ki (literature); cited from earlier work.

Assay [2] concerns the target T2, dopamine D2 (Homo sapiens, UniProt P14416). Conditions: read-out: dopamine D2 Ki (literature); previously assayed analogue; cited from earlier work.
Target sequence in this assay (P14416 whole entry): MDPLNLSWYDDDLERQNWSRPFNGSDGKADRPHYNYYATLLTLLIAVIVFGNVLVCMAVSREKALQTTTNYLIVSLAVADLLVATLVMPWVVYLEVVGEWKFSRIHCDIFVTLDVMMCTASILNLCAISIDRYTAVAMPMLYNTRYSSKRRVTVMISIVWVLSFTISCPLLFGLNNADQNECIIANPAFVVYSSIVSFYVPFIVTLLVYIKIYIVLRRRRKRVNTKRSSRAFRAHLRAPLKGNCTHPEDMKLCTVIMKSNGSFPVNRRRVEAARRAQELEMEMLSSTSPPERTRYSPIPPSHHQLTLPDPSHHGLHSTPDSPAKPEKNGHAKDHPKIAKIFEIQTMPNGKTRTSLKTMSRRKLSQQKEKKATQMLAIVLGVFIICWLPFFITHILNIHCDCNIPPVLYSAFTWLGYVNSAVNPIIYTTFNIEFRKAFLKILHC
The target in another assay is T3, 5HT1a (Homo sapiens, UniProt P08908).
T3 sequence (P08908 1-422): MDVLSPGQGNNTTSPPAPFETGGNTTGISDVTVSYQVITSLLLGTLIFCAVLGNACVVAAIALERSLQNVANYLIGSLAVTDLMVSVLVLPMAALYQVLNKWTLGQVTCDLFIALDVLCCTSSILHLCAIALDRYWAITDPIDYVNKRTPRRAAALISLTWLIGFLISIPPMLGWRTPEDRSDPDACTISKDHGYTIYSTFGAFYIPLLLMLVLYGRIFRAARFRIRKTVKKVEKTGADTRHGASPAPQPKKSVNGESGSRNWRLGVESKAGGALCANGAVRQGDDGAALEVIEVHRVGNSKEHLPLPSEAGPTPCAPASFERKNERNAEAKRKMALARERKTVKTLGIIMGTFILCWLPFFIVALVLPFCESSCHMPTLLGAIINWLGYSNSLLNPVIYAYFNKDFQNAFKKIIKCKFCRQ
Briefly: Secondary radioligand binding assay (Ki).

Another assay deals with T4, α1A (Alpha1A) (Homo sapiens, UniProt P35348).
T4 sequence (P35348 1-466): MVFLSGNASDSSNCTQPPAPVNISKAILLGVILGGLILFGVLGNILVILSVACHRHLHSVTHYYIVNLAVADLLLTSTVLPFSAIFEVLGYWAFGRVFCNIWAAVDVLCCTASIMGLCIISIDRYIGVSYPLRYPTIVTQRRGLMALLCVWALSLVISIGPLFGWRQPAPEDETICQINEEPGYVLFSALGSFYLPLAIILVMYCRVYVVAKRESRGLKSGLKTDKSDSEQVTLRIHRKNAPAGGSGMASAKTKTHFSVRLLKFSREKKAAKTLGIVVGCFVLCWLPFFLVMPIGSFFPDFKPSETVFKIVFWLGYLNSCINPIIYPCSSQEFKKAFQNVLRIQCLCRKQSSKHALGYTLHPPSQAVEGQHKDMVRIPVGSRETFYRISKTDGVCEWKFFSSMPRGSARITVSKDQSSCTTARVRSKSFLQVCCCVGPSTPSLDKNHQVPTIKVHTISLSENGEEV
The experiment in a line: Secondary radioligand binding assay (Ki).

A further assay has as its target 5-HT2B (Homo sapiens, UniProt P41595). Briefly: Secondary radioligand binding assay (Ki).
The target in the next assay is 5-HT7 (Homo sapiens, UniProt P34969). Briefly: Secondary radioligand binding assay (Ki).
Sequence of 5-HT7 (P34969 whole entry, species assumed): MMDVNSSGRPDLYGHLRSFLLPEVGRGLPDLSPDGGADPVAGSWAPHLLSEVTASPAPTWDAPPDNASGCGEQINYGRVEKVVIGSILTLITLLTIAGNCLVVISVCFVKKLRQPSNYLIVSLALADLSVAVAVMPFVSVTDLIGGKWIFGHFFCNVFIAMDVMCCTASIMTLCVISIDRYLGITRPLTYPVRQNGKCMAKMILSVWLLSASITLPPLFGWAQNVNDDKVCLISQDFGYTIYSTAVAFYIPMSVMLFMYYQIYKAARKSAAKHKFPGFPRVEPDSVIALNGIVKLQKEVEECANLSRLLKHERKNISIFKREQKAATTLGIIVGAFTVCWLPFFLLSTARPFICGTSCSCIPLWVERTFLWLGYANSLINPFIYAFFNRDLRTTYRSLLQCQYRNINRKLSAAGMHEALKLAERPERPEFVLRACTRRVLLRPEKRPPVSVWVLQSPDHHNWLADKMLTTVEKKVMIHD
A further assay addresses T5, Alpha1A (Homo sapiens, UniProt P35348).
T5 sequence (P35348 1-466): T4 sequence (P35348 1-466)
The experiment in a line: Primary radioligand binding assay (NIMH PDSP). Conditions: primary radiobinding assay, [3H]Prazosin.

For the next assay, the target named is T6, Alpha1B (Homo sapiens, UniProt P35368).
T6 sequence (P35368 1-520): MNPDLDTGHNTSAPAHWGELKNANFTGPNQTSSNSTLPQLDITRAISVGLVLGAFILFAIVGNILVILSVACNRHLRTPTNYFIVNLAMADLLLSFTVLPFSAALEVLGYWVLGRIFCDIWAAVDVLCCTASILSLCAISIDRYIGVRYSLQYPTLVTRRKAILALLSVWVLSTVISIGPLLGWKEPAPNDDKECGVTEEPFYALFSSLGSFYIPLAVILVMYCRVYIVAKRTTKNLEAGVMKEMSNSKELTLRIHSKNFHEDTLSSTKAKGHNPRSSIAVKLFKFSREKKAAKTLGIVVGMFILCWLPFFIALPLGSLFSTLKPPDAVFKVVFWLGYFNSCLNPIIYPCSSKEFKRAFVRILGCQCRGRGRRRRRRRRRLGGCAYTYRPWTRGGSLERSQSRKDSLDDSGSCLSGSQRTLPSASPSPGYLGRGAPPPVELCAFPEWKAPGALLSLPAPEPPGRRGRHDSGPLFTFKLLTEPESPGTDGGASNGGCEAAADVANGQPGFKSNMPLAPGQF
The experiment in a line: Primary radioligand binding assay (NIMH PDSP). Conditions: primary radiobinding assay, [3H]Prazosin.

Another assay concerns the target T7, Alpha1D (Homo sapiens, UniProt P25100).
T7 sequence (P25100 1-572): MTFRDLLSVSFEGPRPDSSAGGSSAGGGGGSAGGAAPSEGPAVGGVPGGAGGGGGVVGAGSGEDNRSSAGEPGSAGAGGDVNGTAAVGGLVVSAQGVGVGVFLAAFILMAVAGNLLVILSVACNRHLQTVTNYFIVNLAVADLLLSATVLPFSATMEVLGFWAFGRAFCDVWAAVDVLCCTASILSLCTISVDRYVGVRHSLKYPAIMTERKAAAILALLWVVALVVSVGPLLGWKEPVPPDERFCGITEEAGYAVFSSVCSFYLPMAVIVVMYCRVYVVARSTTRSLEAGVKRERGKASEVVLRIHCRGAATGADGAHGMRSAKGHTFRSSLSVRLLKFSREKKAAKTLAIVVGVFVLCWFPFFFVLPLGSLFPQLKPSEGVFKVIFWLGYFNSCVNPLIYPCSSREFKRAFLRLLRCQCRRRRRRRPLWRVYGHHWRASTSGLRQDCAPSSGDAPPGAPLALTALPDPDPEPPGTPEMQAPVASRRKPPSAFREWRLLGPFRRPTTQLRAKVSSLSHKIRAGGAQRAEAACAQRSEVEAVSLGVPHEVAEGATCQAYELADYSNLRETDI
Briefly: Primary radioligand binding assay (NIMH PDSP). Conditions: primary radiobinding assay, [3H]Prazosin.

In a further assay the target is dopamine D1 (Homo sapiens, UniProt P21728). Briefly: Primary radioligand binding assay (NIMH PDSP). Conditions: primary radiobinding assay, [3H]SCH233930.
Sequence of dopamine D1 (P21728 whole entry): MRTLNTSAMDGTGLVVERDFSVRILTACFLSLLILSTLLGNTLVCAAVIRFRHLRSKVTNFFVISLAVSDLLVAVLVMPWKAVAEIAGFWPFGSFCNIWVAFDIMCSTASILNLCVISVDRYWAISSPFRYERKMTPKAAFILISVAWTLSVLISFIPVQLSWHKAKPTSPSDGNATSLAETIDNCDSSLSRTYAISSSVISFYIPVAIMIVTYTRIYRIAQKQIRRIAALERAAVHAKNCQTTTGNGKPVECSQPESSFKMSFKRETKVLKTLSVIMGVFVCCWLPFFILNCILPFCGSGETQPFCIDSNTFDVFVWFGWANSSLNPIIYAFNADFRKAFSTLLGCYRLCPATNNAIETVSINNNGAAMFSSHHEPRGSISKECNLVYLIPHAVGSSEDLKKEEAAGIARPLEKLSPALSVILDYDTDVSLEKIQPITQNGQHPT
Assay [3] deals with T2, dopamine D2. Briefly: Primary radioligand binding assay (NIMH PDSP). Conditions: primary radiobinding assay, [3H]N-methylspiperone.
Target sequence in this assay (P14416 whole entry, species assumed): as the sequence (P14416 whole entry) above
The target of another assay is dopamine D3 (Homo sapiens, UniProt P35462). Briefly: Primary radioligand binding assay (NIMH PDSP). The following applies: primary radiobinding assay, N-methylspiperone.
Sequence of dopamine D3 (P35462 whole entry): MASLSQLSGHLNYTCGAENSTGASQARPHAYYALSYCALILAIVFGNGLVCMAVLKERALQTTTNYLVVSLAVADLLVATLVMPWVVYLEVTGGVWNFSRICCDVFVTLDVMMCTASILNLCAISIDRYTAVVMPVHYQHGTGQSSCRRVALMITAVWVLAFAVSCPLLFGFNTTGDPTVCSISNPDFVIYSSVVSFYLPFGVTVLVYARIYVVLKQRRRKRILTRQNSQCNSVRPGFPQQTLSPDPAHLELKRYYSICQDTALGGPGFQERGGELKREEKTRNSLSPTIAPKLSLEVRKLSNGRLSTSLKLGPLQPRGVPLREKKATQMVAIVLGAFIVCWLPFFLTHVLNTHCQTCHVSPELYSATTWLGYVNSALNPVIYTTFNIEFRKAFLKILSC
Another assay deals with dopamine D5 (Homo sapiens, UniProt P21918). Briefly: Primary radioligand binding assay (NIMH PDSP). Conditions: primary radiobinding assay, [3H]SCH233930.
Sequence of dopamine D5 (P21918 whole entry): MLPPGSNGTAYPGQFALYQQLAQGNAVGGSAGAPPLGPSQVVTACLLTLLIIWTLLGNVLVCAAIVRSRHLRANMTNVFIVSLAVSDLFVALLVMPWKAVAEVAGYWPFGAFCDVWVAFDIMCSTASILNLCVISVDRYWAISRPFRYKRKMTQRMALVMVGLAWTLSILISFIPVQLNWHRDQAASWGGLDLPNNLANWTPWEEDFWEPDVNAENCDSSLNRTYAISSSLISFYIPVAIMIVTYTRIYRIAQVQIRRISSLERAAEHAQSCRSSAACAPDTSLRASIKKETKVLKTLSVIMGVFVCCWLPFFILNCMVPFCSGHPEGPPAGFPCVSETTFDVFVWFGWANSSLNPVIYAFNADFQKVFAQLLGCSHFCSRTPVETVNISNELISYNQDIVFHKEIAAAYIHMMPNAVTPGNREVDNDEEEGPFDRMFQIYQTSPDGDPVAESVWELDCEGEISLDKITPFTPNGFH
Assay [4] addresses T1, dopamine D4. The experiment in a line: Primary radioligand binding assay (NIMH PDSP). Conditions: primary radiobinding assay, N-methylspiperone.

Sequence of 5-HT2B (P41595 whole entry, species assumed): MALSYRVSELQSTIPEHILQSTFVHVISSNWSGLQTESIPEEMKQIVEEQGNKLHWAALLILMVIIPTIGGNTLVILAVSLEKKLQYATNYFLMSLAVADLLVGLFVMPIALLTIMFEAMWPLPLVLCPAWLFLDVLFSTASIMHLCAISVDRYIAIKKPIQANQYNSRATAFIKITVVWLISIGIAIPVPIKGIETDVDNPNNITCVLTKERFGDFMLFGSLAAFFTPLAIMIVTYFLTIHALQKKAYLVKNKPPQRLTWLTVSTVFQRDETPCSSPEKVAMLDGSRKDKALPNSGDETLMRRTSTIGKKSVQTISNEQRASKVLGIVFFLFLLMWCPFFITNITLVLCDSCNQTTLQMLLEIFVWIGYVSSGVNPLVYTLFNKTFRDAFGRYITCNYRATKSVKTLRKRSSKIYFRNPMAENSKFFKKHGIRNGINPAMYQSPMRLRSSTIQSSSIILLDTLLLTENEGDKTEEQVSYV
Description for 5-HT2B: (§1) Assay Buffer: Standard Binding Buffer (50 mM Tris-HCl, 10 mM MgCl2, 1 mM EDTA, pH 7.4)
(§2) Membrane Fraction Source: Transiently or stably transfected cell lines (e.g., HEK293, COS, CHO, NIH3T3)
(§3) Radioligand is diluted to five times the assay concentration (see Table 18) in Standard Binding Buffer. Typically, the assay concentration of radioligand is a value between one half the KD and the KD of a particular radioligand at its target. 50 μl aliquots of radioligand are dispensed into the wells of a 96-well plate containing 100 μl of Standard Binding Buffer. Then, duplicate 50 μl aliquots of the test and reference compound dilutions are added.
(§4) The 250 μl reactions are incubated at room temperature and shielded from light (to prevent photolysis of light-sensitive ligands) for 1.5 hours, then harvested by rapid filtration onto Whatman GF/B glass fiber filters pre-soaked with 0.3% polyethyleneimine using a 96-well Brandel harverster. Four rapid 500 μl washes are performed with chilled Standard Binding Buffer to reduce non-specific binding. Filters are placed in 6 ml scintillation tubes and allowed to dry overnight. The next day, 4 ml of EcoScint scintillation cocktail (National Diagnostics) are added to each tube. The tubes are capped, labeled, and counted by liquid scintillation counting. […] The filter mats are dried, then scintillant is melted onto the filters and the radioactivity retained on the filters is counted in a Microbeta scintillation counter.
(§5) Raw data (dpm) representing total radioligand binding (i.e. specific+non-specific binding) are plotted as a function of the logarithm of the molar concentration of the competitor (i.e. test or reference compound).
Description for 5-HT7: as §1, §2, §3, §4, §5
Description for 5HT1a: as §1, §2, §3, §4, §5
Description for α1A (Alpha1A): as §3, §4, §5
Adrenergic Receptors: α1A, α1B, α2A, α2B, α2C, β1, β2, β3
Membrane Fraction Source: Transiently or stably transfected cell lines (e.g. HEK293, COS, CHO, NIH3T3)
The method is carried out in the manner described for the serotonin receptor assay above, except where described below. Eleven dilutions (5× assay concentration) of the test and reference (see Table 20) compounds are prepared in the appropriate buffer by serial dilution, as previously described. Radioligand is diluted to five times the assay concentration (see Table 21) in the appropriate buffer.
The 250 μl reactions are incubated at room temperature and shielded from light (to prevent photolysis of light-sensitive ligands) for 1 hour (for α1 receptors, 40 min for α2 receptors, and 1.5 hours for β receptors), then harvested by rapid filtration onto Whatman GF/B glass fiber filters pre-soaked with 0.3% polyethyleneimine using a 96-well Brandel harverster. Four rapid 500-μl washes are performed with chilled distilled water (for α1 and β receptors) or 0.1% polyethyleneimine (for α2 receptors) to reduce non-specific binding. Filters are placed in 6 ml scintillation tubes and allowed to dry overnight and the samples are treated to obtain data as described above.

`O=C1c2ccccc2CN1CCCCN1CCN(c2ccccc2)CC1` [2-(4-(4-Phenyl-1-piperazinyl)butyl)-1-isoindolinone]: the results for the inhibitory constant (Ki) on dopamine D4 [1] and on dopamine D2 [2] were 0.134 µM and 0.319 µM, respectively.
Turning to `CC1Cc2ccccc2N1C(=O)CN1CCN(c2ccccc2)CC1` (stereo not drawn) [STT-00185641], the Ki (commonly a measure of affinity in units of concentration, obtained from inhibition or displacement) was 8.43 µM at 5HT1a, 2.01 µM on α1A (Alpha1A), 1.45 µM at 5-HT2B and 2.82 µM at 5-HT7. Moreover, the “Alpha1A (% inh)” value on Alpha1A was determined as 64.8 % inh. Further, the “Alpha1B (% inh)” value at Alpha1B was −19.8 % inh. For the same compound, the “Alpha1D (% inh)” value at Alpha1D is listed as 31.1 % inh. Besides, the “D1 (% inh)” value on dopamine D1 is given as −1 % inh. Further, on dopamine D2 [3], the “D2 (% inh)” value was found to be 2 % inh. On dopamine D3, the “D3 (% inh)” value came to 51 % inh. For the same compound, on dopamine D5, the “D5 (% inh)” value is 18 % inh.
As to `COc1cc2c(cc1OC)C(=O)C(CC1CCN(Cc3ccccc3)CC1)C2` (stereo not drawn) [donepezil, reference compound], the “D2 (% inh)” value on dopamine D2 [3] was determined as 18.6 % inh. The “D4 (% inh)” value on dopamine D4 [4] turned out to be 89.2 % inh.
